Test results as given in patent US10233195B2, “Anti-fibrotic pyridinones” (InterMune, Inc., priority 2014, dated 2019).

System: TGF-b induced Endothelin-1 production
Assay: ET-1 assay: inhibitory effect on TGF-b induced endothelin-1 production
Format: cell-based
Conditions: Homo sapiens, Fibroblast; fibroblasts, stimulant (TGFb, serum, LPA etc), ET-1 in media by ELISA, 4-parameter fit
Experimental: Assay of Inhibitory Effect on TGF-b Induced Endothelin-1 Production
Fibroblasts (primary human lung and dermal, HFL-1, 3T3 etc) are seeded in 96-well plates at ˜15000 cells/well and serum starved for 0-48 hours. After media exchange, compounds serially diluted in DMSO are added to the cells. After a brief incubation of ˜30 min, stimulants (TGFb, serum, LPA etc) are added followed by further incubation for 16-48 hours. Media is then harvested and stored frozen in plate format for later endothelin-1 (ET-1) determination by ELISA. Toxicity measurements are made using the ATPlite kit (Perkin-Elmer). ET-1 is quantified using an ELISA kit (R&D Systems). The amount of ET-1 produced in the assay wells are back-calculated using the ELISA standard. The ability of a compound to inhibit ET-1 production is typically analyzed by fitting dose-response curves to a 4-parameter logistic function to obtain an EC50 value. A measure of cytotoxicity (CC50) is likewise reported from the same experiment using the ATPlite data.
Compounds of some embodiments were prepared according to synthetic methods described herein and assay data obtained for EC50 against ET-1. The assay data obtained is presented in Table 2, in which A=less than 50 μM, B=greater than or equal to 50 μM and less than or equal to 200 μM; and C=greater than 200 μM.

| Structure (SMILES) | EC50 |
| --- | --- |
| CC(=O)N1CCc2c(-c3cnn(C)c3)cn(-c3ccc(OC(F)(F)F)cc3)c(=O)c21 [Compound 693] | 50 to 200 µM |
| O=c1ccc(-c2ccc(F)cc2)cn1-c1cccc(C(F)(F)F)c1 [Compound 289] | 50 to 200 µM |
| Cc1nc2c(=O)n(-c3ccc(OC(F)(F)F)cc3)cc(-c3cn[nH]c3)c2n1C [Compound 675] | < 50 µM |
| Cc1cc(=O)n(-c2ccc(OC(F)(F)F)cc2)cc1-c1nnnn1C [Compound 257] | > 200 µM |
| Cc1cc(=O)n(-c2ccc(OC(F)(F)F)cc2)cc1-c1nnn(C)n1 [Compound 256] | > 200 µM |
| O=c1ccc(Br)cn1-c1ccc(OC(F)(F)F)cc1 [Compound 270] | > 200 µM |
| Cc1n[nH]c(C)c1-c1ccc(=O)n(-c2cccc(F)c2)c1 [Compound 381] | > 200 µM |
| CCn1nnc2c(=O)[nH]cc(-c3cnn(C)c3)c21 [Compound 622] | > 200 µM |
| Cn1cc(-c2cn(-c3ccc(OC(F)(F)F)cc3)c(=O)c3c2CCCC3)cn1 [Compound 33] | < 50 µM |
| Cn1cc(-c2ccc(=O)n(-c3ccccc3)n2)cn1 [Compound 361] | > 200 µM |
| Cc1cc(=O)n(-c2cccc(OC(F)(F)F)c2)cc1-c1ccc(F)cc1 [Compound 174] | < 50 µM |
| CC(=O)Nc1cc(=O)n(-c2ccc(OC(F)(F)F)cc2)cc1-c1cnn(C)c1 [Compound 141] | > 200 µM |
| CCOc1ccc(-n2cc(-c3cnn(C)c3)c(OC3CCOCC3)cc2=O)c(C)c1 [Compound 698] | 50 to 200 µM |
| CCOc1ccc(-n2cc(-c3cn[nH]c3)c3ncccc3c2=O)c(C)c1 [Compound 580] | < 50 µM |
| O=c1ccc(-c2cncnc2)cn1-c1ccc(F)cc1 [Compound 344] | > 200 µM |
| N#Cc1ccc(-n2cc(-c3cn[nH]c3)c3ncccc3c2=O)cc1 [Compound 581] | > 200 µM |
| CCn1nnc2c(-c3cn[nH]c3)cn(-c3ccc(OC(F)(F)F)cc3)c(=O)c21 [Compound 634] | < 50 µM |
| O=c1cc2ccccc2cn1-c1ccccc1 [Compound 354] | 50 to 200 µM |
| Cn1cc(-c2cn(-c3ccc(F)cc3)c(=O)cc2Oc2ccccc2)cn1 [Compound 532] | < 50 µM |
| CCn1ccc2c(-c3cnn(C)c3)c[nH]c(=O)c21 [Compound 611] | < 50 µM |
| CCCCOC(=O)n1cc(-c2ccc(=O)n(-c3ccccc3)c2)cn1 [Compound 74] | 50 to 200 µM |
| CCOc1ccc(-n2cc(-c3cnn(C)c3)c(N(C)Cc3ccccc3)cc2=O)c(C)c1 [Compound 705] | < 50 µM |
| CCn1cnc2c(-c3cnn(C(C)C)c3)cn(-c3ccc(OC(F)(F)F)cc3)c(=O)c21 [Compound 671] | < 50 µM |
| Cc1cc(=O)n(-c2cccc(N)c2)cc1-c1ccc(F)cc1 [Compound 187] | 50 to 200 µM |
| Cc1nc2c(-c3cn[nH]c3)cn(-c3ccc(OC(F)(F)F)cc3)c(=O)c2s1 [Compound 587] | < 50 µM |
| CC(C)C(=O)Nc1cc(=O)n(-c2ccc(OC(F)(F)F)cc2)cc1-c1ccc(F)cc1 [Compound 108] | > 200 µM |
| Cc1nc2ccn(-c3ccc(OC(F)(F)F)cc3)c(=O)c2s1 [compound 585] | > 200 µM |

| Structure (SMILES) | EC50 |
| --- | --- |
| Cc1cc(=O)n(-c2ccc(OC(F)(F)F)cc2)cc1-n1ccnc1 [Compound 244] | > 200 µM |
| Cc1cc(=O)n(-c2ccc(OC(F)(F)F)cc2)cc1-c1cnc2nccn2c1 [Compound 248] | > 200 µM |
| CC(C)c1cc(=O)n(-c2ccc(OC(F)(F)F)cc2)cc1-c1ccc(F)cc1 [Compound 200] | 50 to 200 µM |
| Cn1cc(-c2cn(-c3ccc(OC(F)(F)F)cc3)c(=O)cc2NCc2c(Cl)cccc2Cl)cn1 [Compound 132] | > 200 µM |
| CC(=O)Nc1cccc(-n2cc(-c3ccc(F)cc3)c(Oc3ccccc3)cc2=O)c1 [Compound 536] | < 50 µM |
| COc1cccc(-n2cc(C(C)=O)ccc2=O)c1 [Compound 14] | > 200 µM |
| CCOc1ccc(-n2cc(-c3cnn(C)c3)c(NCc3ccc(OCCOC)cc3)cc2=O)c(C)c1 [Compound 707] | < 50 µM |
| CC(=O)Nc1cccc(-n2cc(C(F)(F)F)ccc2=O)c1 [Compound 277] | > 200 µM |
| Cn1cc(-c2cc(=O)n(-c3ccc(OC(F)(F)F)cc3)cc2-c2cnn(C)c2)cn1 [Compound 708] | 50 to 200 µM |
| Cn1cc(-c2cn(-c3ccc(OC(F)(F)F)cc3)c(=O)c3c2ccn3Cc2ccccc2)cn1 [Compound 596] | < 50 µM |
| O=c1ccc(-c2ccc(F)cc2)nn1-c1ccc(OC(F)(F)F)cc1 [Compound 362] | > 200 µM |
| CCOc1ccc(-n2cc(-c3ccc(F)cc3)ccc2=O)c(C)c1 [Compound 438] | > 200 µM |
| COc1ccc(-c2ccc(=O)n(-c3ccccc3F)c2)cc1 [Compound 312] | > 200 µM |
| Cc1cc(=O)n(-c2ccc(F)c(NC(N)=O)c2)cc1-c1ccc(F)cc1 [Compound 559] | < 50 µM |
| O=c1ccc2c(n1-c1ccccc1)CCC2 [Compound 27] | > 200 µM |
| COc1ccc(CN(C)c2cc(=O)n(-c3ccc(OC(F)(F)F)cc3)cc2-c2cnn(C)c2)cc1 [Compound 135] | 50 to 200 µM |
| Cc1nc2c(=O)n(-c3ccc(OC(F)(F)F)cc3)cc(-c3ccc(F)cc3)c2o1 [Compound 568] | > 200 µM |
| CC(=O)c1ccc(=O)n(-c2cccc(C(F)(F)F)c2)c1 [Compound 11] | > 200 µM |
| CCOc1ccc(CNc2cc(=O)n(-c3ccc(OC(F)(F)F)cc3)cc2-c2cnn(C)c2)cc1 [Compound 530] | < 50 µM |
| COc1ccc(-c2ccc(=O)n(-c3ccc(Cl)cc3)c2)cc1 [Compound 303] | 50 to 200 µM |
| Cc1cc(=O)n(-c2cccc(C(F)(F)F)c2)cc1-c1ccc(F)cc1 [Compound 177] | 50 to 200 µM |
| O=c1ccc(Br)cn1-c1cccc(F)c1 [Compound 272] | > 200 µM |
| Cn1cc(-c2cn(-c3ccc(OC(F)(F)F)cc3)c(=O)cc2OCCN2CCCC2)cn1 [Compound 145] | 50 to 200 µM |
| COC(=O)Nc1cc(=O)n(-c2ccc(OC(F)(F)F)cc2)cc1-c1ccc(F)cc1 [Compound 111] | > 200 µM |
| COc1cc(=O)n(-c2ccc(OC(F)(F)F)cc2)cc1-c1ccc(F)cc1 [Compound 85] | > 200 µM |
| O=c1c2c(c(-c3cccc(F)c3)cn1-c1ccc(OC(F)(F)F)cc1)CCCC2 [Compound 34] | < 50 µM |
| O=c1cc(NCc2ccccc2)c(-c2ccc(F)cc2)cn1-c1ccc(OC(F)(F)F)cc1 [Compound 89] | > 200 µM |

| Structure (SMILES) | EC50 |
| --- | --- |
| O=c1ccc(-c2cccc(Cl)c2)cn1-c1ccccc1 [Compound 313] | 50 to 200 µM |
| Cc1cc(=O)n(-c2ccc(OC(F)(F)F)cc2)cc1-c1cccnc1 [Compound 241] | > 200 µM |
| Cn1cc(-c2cn(-c3ccc(OC(F)(F)F)cc3)c(=O)cc2OCCN2CCCC2=O)cn1 [Compound 146] | > 200 µM |
| COc1cc(-n2cc(-c3cn[nH]c3)c(C)cc2=O)cc(OC)c1OC [Compound 220] | > 200 µM |
| Cc1cc(=O)n(-c2ccc(OC(F)(F)F)cc2)cc1-c1cccc2c1NC(=O)CO2 [Compound 426] | > 200 µM |
| COc1cccc(-n2cc(-c3cccc(Cl)c3)ccc2=O)c1 [Compound 319] | < 50 µM |
| COc1ccc(-n2cc(-c3cn[nH]c3)ccc2=O)cc1 [Compound 370] | > 200 µM |
| CCn1cc(-c2cn(-c3ccc(OC(F)(F)F)cc3)c(=O)c3c2ncn3CC)cn1 [Compound 670] | < 50 µM |
| O=c1ccc(-c2cncnc2)cn1-c1ccccc1F [Compound 346] | > 200 µM |
| O=c1c2c(ccn2Cc2ccccc2)c(-c2ccc(F)cc2)cn1-c1ccc(OC(F)(F)F)cc1 [Compound 392] | > 200 µM |
| COCCOc1ccc(Oc2cc(=O)n(-c3ccc(OC(F)(F)F)cc3)cc2-c2cnn(C)c2)cc1 [Compound 533] | 50 to 200 µM |
| O=c1ccc(-c2cccc(Cl)c2)cn1-c1ccncc1 [Compound 323] | > 200 µM |
| O=c1ncc(-c2ccnnc2)cn1-c1ccc(OC(F)(F)F)cc1 [Compound 347] | 50 to 200 µM |
| Cn1cc(-c2cn(-c3ccc(OC(F)(F)F)cc3)c(=O)cc2OCCN2CCS(=O)(=O)CC2)cn1 [Compound 148] | > 200 µM |
| CCc1cc(=O)n(-c2ccc(OC(F)(F)F)cc2)cc1-c1ccc(F)cc1 [Compound 199] | 50 to 200 µM |
| O=c1c2c(c(-c3ccc(F)cc3)cn1-c1ccc(OC(F)(F)F)cc1)NCCC2 [Compound 45] | > 200 µM |
| O=c1cc(OCCN2CCS(=O)(=O)CC2)c(-c2ccc(F)cc2)cn1-c1ccc(OC(F)(F)F)cc1 [Compound 94] | > 200 µM |
| Cn1cc(-c2cn(-c3ccc(OC(F)(F)F)cc3)c(=O)cc2N2CCOCC2)cn1 [Compound 128] | < 50 µM |
| Cc1cc(=O)n(-c2ccc(OC(F)(F)F)cc2)cc1-c1ccccc1F [Compound 194] | < 50 µM |
| CC(C)Oc1ccc(-n2cc(-c3ccc(F)cc3)ccc2=O)cc1 [Compound 288] | 50 to 200 µM |
| CCOc1ccc(-n2cc(Br)ccc2=O)c(C)c1 [Compound 273] | > 200 µM |
| O=c1c2nsnc2c(-c2ccc(F)cc2)cn1-c1ccc(OC(F)(F)F)cc1 [Compound 40] | > 200 µM |
| Cc1ccccc1-n1cc(-c2cnn(C)c2)ccc1=O [Compound 439] | > 200 µM |
| Cc1cc(=O)n(-c2ccc3[nH]cnc3c2)cc1-c1cnn(C)c1 [Compound 233] | > 200 µM |
| NS(=O)(=O)c1ccc(-c2ccc(=O)n(-c3cccc(C(F)(F)F)c3)c2)cc1 [Compound 329] | > 200 µM |
| Cc1cc(=O)n(-c2ccc3c(c2)OCO3)cc1-c1cnn(C)c1 [Compound 223] | > 200 µM |
